{"source": "patent US20220218701A1", "about": "“COMPOSITIONS AND METHODS COMPRISING ENDOTHELIN A RECEPTOR ANTAGONISTS AND ANDROGEN THERAPIES” (priority 2019, published 2022)", "key": {"[1]": {"molecular_target": "T1, endothelin B receptor (ETBR) (Homo sapiens, UniProt P24530)", "T1 sequence (P24530 27-442)": "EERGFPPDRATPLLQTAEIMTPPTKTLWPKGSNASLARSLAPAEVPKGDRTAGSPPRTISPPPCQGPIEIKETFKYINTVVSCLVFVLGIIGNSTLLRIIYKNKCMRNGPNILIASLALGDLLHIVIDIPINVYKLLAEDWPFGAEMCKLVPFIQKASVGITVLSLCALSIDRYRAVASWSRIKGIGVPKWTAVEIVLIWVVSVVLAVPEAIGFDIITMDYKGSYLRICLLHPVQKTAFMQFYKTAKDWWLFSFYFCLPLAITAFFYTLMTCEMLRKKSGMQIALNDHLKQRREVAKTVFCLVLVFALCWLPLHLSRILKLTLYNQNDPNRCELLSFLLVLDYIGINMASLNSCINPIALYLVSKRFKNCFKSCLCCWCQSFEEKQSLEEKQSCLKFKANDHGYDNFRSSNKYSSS", "conditions": "cited from earlier work"}, "[2]": {"system": "ARCaPM prostate cancer cell line", "test": "ARCaPM prostate cancer bone metastasis model, intracardiac inoculation, castration or sham surgery", "format": "in vivo, athymic nude mice", "description": "Forty-eight male athymic nude mice either underwent castration or sham surgery at four weeks of age. At 5 weeks of age, mice were inoculated with ARCaPM prostate cancer cell line into the left cardiac ventricle. […] Two days later, mice began zibotentan 25 mg/kg/day or vehicle control by gavage.\n(§1) Forty-eight HSD athymic nude male mice were obtained from Harlan Sprague Dawley (Envigo, Indianapolis, Ind.) after undergoing castration or sham surgery. At five weeks of age, mice were anesthetized using isoflurane vaporizer anesthesia. ARCaPM prostate cancer cells were washed, resuspended in PBS, and inoculated into the left cardiac ventricle at a volume of 100 μl containing 1×10^5 cells, as previously described. Starting at seven days post-inoculation, mice were weighed every 2-3 days.\nZibotentan is an ETAR-specific antagonist and was obtained from AstraZeneca (Cambridge, England). Zibotentan was dissolved in 1% polysorbate 80 at a concentration of 5 mg/ml. Mice in the treatment group received zibotentan 25 mg/kg/day. Mice in the vehicle control group received an equivalent volume of 1% polysorbate 80 via gavage. Gavage treatments were started two days after the intracardiac inoculations (5 weeks+2 days of age) seven days/week. The dosing scheduled was changed to five days/week at 59 days post-inoculation.\n(§2) Mice were anesthetized using an isoflurane vaporizer anesthetic unit and underwent radiographic imaging using a Faxitron UltraFocus 60 Digital Radiographic Unit (Faxitron, Tucson, Ariz.) every 2-4 weeks with attention paid to the appearance of sclerotic or lytic skeletal lesions.\nFollowing euthanasia, mouse femora, tibiae, humeri, spines and other bones were harvested and fixed in 10% buffered formalin for 48 hours and decalcified in Immunocal (Decal Chemical Corp, Suffern, N.Y.) for an additional 48 hours. Bones were rinsed, processed and paraffin embedded. Blocks were cut into 5 μm sections, mounted onto charged glass slides, and air-dried overnight.\nStatic histomorphometric analysis was performed on embedded samples stained with hematoxylin, eosin, and orange G, a bone matrix stain. Images of the samples were taken at 4× with Nikon Eclipse 90i upright microscope and Nikon HD Cooled Color Digital Camera DXM1200C paired with Nikon ACT-1C software. Each sample produced 10 to 30 tiled scans of the whole specimen and were stitched using Adobe Photoshop CC. Tumor area was traced and measured on Adobe Photoshop CC with Cintiq 22HD touch (Wacom) tablet PC and stylus. Then, measured tumor area was divided by each subject's age in days for further statistical analysis.\nForty-eight male athymic nude mice underwent castration (24 mice) or sham surgery (24 mice) at three weeks of age. At five weeks of age, ARCaPM prostate cancer cells (1×10^5 cells in 100 μl) were inoculated into the left cardiac ventricle. […] Two days later, zibotentan 25 mg/kg/day or vehicle control treatments by gavage were started. This strategy produced four experimental groups: vehicle+sham (Veh+Sham), vehicle+castrate (Veh+Castr), zibotentan+sham (Zibo+Sham), and zibotentan+castrate (Zibo+Castr) (FIG. 2)."}, "[3]": {"system": "metastatic CRPC", "conditions": "phase 2, 312 men with metastatic CRPC; increased from 17.3; cited from earlier work"}, "[4]": {"system": "ET-1", "test": "Serum ET-1 ELISA at euthanasia in the ARCaPM model", "format": "in vivo, mice", "description": "Sera were collected at euthanasia and frozen. Thawed sera were analyzed for ET-1 concentration using ELISA in the four experimental groups and further subdivided into the presence or absence of prostate cancer lesions. Data was analyzed using two-way ANOVA. Treatment with zibotentan was a significant source of statistical variation. Blood was collected at euthanasia. Sera was collected using serum-separator centrifuge tubes (BD Microtainer®, SST, Becton Dickinson, Franklin Lakes, N.J.), and frozen at −80° C. for later analyses. ET-1 concentration was measured in thawed sera using an ET-1 colorimetric ELISA kit (R&D Systems, Minneapolis, Minn.) and a BioTek Synergy HTX plate reader (Winooski, Vt.)."}, "[5]": {"conditions": "as reported by the applicant's group; cited from earlier work"}, "[6]": {"test": "Body weight and adverse effects in the ARCaPM model", "format": "in vivo, athymic nude mice", "description": "Mice body weights were measured starting at 7 days post-inoculation and continued every 2-3 days until the completion of the experiment at 152 days. Two days after inoculation, mice began to receive zibotentan or vehicle control. Due to potential adverse effects in the Zibo+Castr group, the dosing was reduced to 5 days/week starting at day 59 post inoculation. Veh=vehicle control; Zibo=zibotentan; Sham=sham surgery; Castr=castration\nas §1, §2\nThe mice underwent radiographic imaging every 2-4 weeks to monitor for the development of bone lesions. Mice were also monitored frequently for abnormal behavior indicating the presence of a large tumor burden. Euthanasia was performed according to pre-determined humane endpoints—15% weight loss, paralysis, skeletal fractures, or any other signs of distress. Mice were weighed every 2-3 days (FIG. 3). As expected, mice in the castration groups had less weight gain compared to the sham groups, as has been reported elsewhere."}, "[7]": {"conditions": "Zibo + Castr group, zibotentan 25 mg/kg/day gavage"}, "[8]": {"conditions": "Zibo + Sham group, zibotentan 25 mg/kg/day gavage"}, "[9]": {"conditions": "Zibo+Sham vs Veh+Sham and Veh+Castr groups"}, "[10]": {"conditions": "effect of castration in zibotentan treated groups, Zibo+Castr vs. Zibo+Sham"}}, "note": "“Also recorded” adds a separate entry of the source."}
{"smiles": "COc1nc(C)cnc1NS(=O)(=O)c1cccnc1-c1ccc(-c2nnco2)cc1", "note": "[zibotentan]", "values": [{"measurement": "affinity for the endothelin B receptor (ETBR)", "setting": "[1]", "value": "no affinity"}, {"measurement": "number of skeletal lesions, Left leg Prox tibia", "setting": "[2]; [7]", "value": 1}, {"measurement": "number of soft tissue lesions, TOTAL", "setting": "[2]; [7]", "value": 0}, {"measurement": "number of skeletal lesions, Left leg Dist femur", "setting": "[2]; [8]", "value": 1}, {"measurement": "number of skeletal lesions, Left leg Prox tibia", "setting": "[2]; [8]", "value": 1}, {"measurement": "number of skeletal lesions, Maxilla", "setting": "[2]; [8]", "value": 2}, {"measurement": "number of skeletal lesions, Rib", "setting": "[2]; [8]", "value": 1}, {"measurement": "number of skeletal lesions, Right arm Prox humerus", "setting": "[2]; [8]", "value": 1}, {"measurement": "number of skeletal lesions, Right arm Prox radius", "setting": "[2]; [8]", "value": 1}, {"measurement": "number of skeletal lesions, TOTAL", "setting": "[2]; [8]", "value": 8}, {"measurement": "number of skeletal lesions, Thoracic spine T10", "setting": "[2]; [8]", "value": 1}, {"measurement": "number of soft tissue lesions, Adrenal Right", "setting": "[2]; [8]", "value": 1}, {"measurement": "number of soft tissue lesions, Eye Left", "setting": "[2]; [8]", "value": 1}, {"measurement": "number of soft tissue lesions, TOTAL", "setting": "[2]; [8]", "value": 2}, {"measurement": "time to bone-specific tumor events", "setting": "[2]; Zibo+Castr compared to Zibo+Sham group, p=0.0250", "value": "longer"}, {"measurement": "detectable tumor at the completion of the experiment", "setting": "[2]; Zibo+Castr group, day 152", "value": "No mouse"}, {"measurement": "survival", "setting": "[2]; Zibo+Castr vs Veh+Sham groups", "value": "no survival difference"}, {"measurement": "time to a tumor event (tumor-free status)", "setting": "[2]; Zibo+Castr vs Zibo+Sham group, p=0.0149", "value": "significantly longer time to a tumor event"}, {"measurement": "radiographically apparent lesions at the end of the experiment", "setting": "[2]; Zibo+Castr, 152 days", "value": "lack of radiographically apparent lesions"}, {"measurement": "survival (Kaplan-Meier)", "setting": "[2]; Zibo+Sham group, p=0.0045", "value": "significantly shorter survival"}, {"measurement": "skeletal lesion area (histomorphometry)", "setting": "[2]; [9]", "value": "No significant differences"}, {"measurement": "tumor area adjusted to the day post-inoculation of euthanasia", "setting": "[2]; [9]", "value": "differences among the groups were not detected"}, {"measurement": "survival", "setting": "[2]; absence of androgen, Zibo+Castr vs. Veh+Castr, p=0.0050", "value": "improved survival"}, {"measurement": "number of skeletal lesions", "setting": "[2]; [10]", "value": "reduced the number of skeletal lesions"}, {"measurement": "survival", "setting": "[2]; [10]", "value": "increased survival"}, {"measurement": "survival", "setting": "[2]; sham-operated mice, Zibo+Sham vs. Veh+Sham, p=0.0171", "value": "decrease survival"}, {"measurement": "overall survival", "setting": "[3]", "value": 24.5, "unit": "months"}, {"measurement": "serum ET-1 concentration", "setting": "[4]; zibotentan-treated tumor-bearing mice vs tumor-free", "value": "trend for higher serum ET-1"}, {"measurement": "serum ET-1 concentration", "setting": "[4]; zibotentan-treated vs vehicle control mice, sera at euthanasia", "value": "significant increase; also recorded: higher"}, {"measurement": "side effect underlying gastrointestinal effects", "setting": "[5]", "value": "immune-related damage of nasal olfactory epithelium leading to aerophagia and intestinal distention"}, {"measurement": "body weight gain", "setting": "[6]; Zibo+Castr group", "value": "lack of significant weight gain was more evident"}, {"measurement": "radiographic images, intestinal air", "setting": "[6]; Zibo+Castr group", "value": "intestinal gas distension within the stomach and intestines"}, {"measurement": "mice that lost more than 15% of weight and were euthanized", "setting": "[6]; Zibo+Castr group, 34 and 42 days post-inoculation, no tumor found", "value": "Two"}, {"measurement": "abdominal distension", "setting": "[6]; Zibo+Castr group, within 2-4 weeks of treatment initiation", "value": "developed abdominal distension"}, {"measurement": "unintended consequences of zibotentan and castration", "setting": "[6]; combination of zibotentan and castration", "value": "weight loss, diffuse gas distention within the stomach and intestines, and respiratory epithelial inflammation"}]}
